In patent publication US8507498B2, “4, 6-disubstituted aminopyrimidine derivatives as inhibitors of protein kinases” (Ingenium Pharmaceuticals GmbH, priority 2007, dated 2013):
Entries after “also recorded” stand apart in the source; their conditions may differ.

Experiments:
TNFα = test: LPS in vivo assay, serum TNF alpha ELISA; conditions: LPS mice, 10 or 30 mg/kg single p.o. 30 min prior to LPS, blood 90 min after LPS, vs vehicle
Procedure: (§1) For the LPS induced model of septic shock, mice receive an intraperitoneal (i.p.) injection of 30 μg bacterial Lipopolysaccharide (LPS; L2630 SIGMA) in saline. Said LPS-mediated initiation of the inflammatory signalling cascade results in increasing blood serum concentrations of cytokines such as e.g. TNFα, IL-6 and IL1β. Blood can be taken from these animals at defined time points. Thereafter, serum will be separated and the samples can be stored at −80° C. until cytokine concentrations are measured using commercial ELISA assays. (AL Moreira et al., Braz J Med Biol Res 1997; 30:1199-1207).
(§2) Wildtype mice (strain C3HeB/FeJ) (age, sex and weight matched) were injected with 30 μg LPS (SIGMA) intraperitoneally. 90 minutes after LPS administration these animals were anaesthetized with 0.1 ml/10 g bodyweight Ketamine-Rompun (50/20 mg/ml) and blood for serum preparation was taken via cardiac puncture.
(§3) Pharmacological treatment groups (n=4) of LPS mice received per os (p.o.) injections of CDK-inhibiting compounds or the vehicle (negative control), respectively. In particular, compounds 1, 5, 10, and 84 were administered.
(§4) 10 or 30 mg/kg (compound per bodyweight) of a CDK inhibitor, dissolved in 20% DMSO, 5% Tween 80, 10% Tris 1M pH8, 20% PEG400, 45% PBS was administered as a single p.o. dosage 30 min prior to LPS stimulation. Vehicle control was administered in the same manner.
(§5) 90 minutes (min) after LPS stimulation, blood samples were taken from the mice. Previously, the 90 min time point had been identified as the peak of TNF alpha expression in this animal model by a time course experiment.
(§6) Blood samples (˜500 μl/animal) from the LPS animals were incubated on wet ice for 30 min after cardiac puncture. Afterwards the samples were centrifuged for 15 min at 13.000 rpm. Serum was separated from the clot and stored frozen at −80° C.
(§7) Serum concentrations of TNF alpha and IL6 within the samples were measured by using commercial ELISA Kits (Natutec) according to the manufacturers instructions.

IL6 = test: LPS in vivo assay, serum IL6 ELISA; conditions: LPS mice, 10 or 30 mg/kg single p.o. 30 min prior to LPS, blood 90 min after LPS, vs vehicle
Procedure: as §1, §2, §3, §4, §5, §6, §7

[1] = system: TNFα expression in LPS-induced THP-1 macrophages; test: In vitro THP-1 assay, TNFα ELISA; type: cell-based, human; conditions: 0.5 to 5 μM, 60 min pre-incubation, vs DMSO
Procedure: (§8) THP-1 cells are grown in modified RPMI-1640 medium (ATCC, Cat. No. 30-2001) supplemented with 10% FCS and 1% Pen/Strep. For cytokine inhibition assays, cells are seeded at a density of 5×10^5 cells/ml into 6-well plates in standard growth medium supplemented with 100 ng/ml PMA (Sigma, P1585) to induce differentiation into macrophage-like cells. After 24 hours, the medium is replaced with standard growth medium (without PMA) and the cells are incubated for another 48 hours to complete differentiation. […] Cells are incubated for 60 min with compounds prior to stimulation with 100 ng/ml LPS (Sigma, L2630) for another 4-48 hours. Supernatants are collected and assayed immediately for cytokine expression, e.g. for TNFα, IL-6 and IL-1b using commercially available sandwich ELISA assays (eBioscience, Cat. No 88-7346, 88-7066, 88-7010) or kept frozen at […] until evaluation. Concentrations of TNFα, IL6 and IL1β within the cell culture supernatants are measured by using commercial ELISA Kits (eBioscience) according to the manufacturer's instructions. CDK-inhibitory compounds # 1, 2, 3, 5, 16, 18, 19 and 32 were administered to differentiated THP-1 cells in triplicates as described above (see section 2.). After 60 min of pre-incubation with test or reference compound (SB203580, a p38 inhibitor and BMS345541, an IKK-inhibitor) alone, cells were stimulated with LPS. After incubation for 4-48 h, supernatants were collected and ELISA based determinations of cytokine supernatant concentrations were performed as described in section 3, supra.

[2] = system: IL6 expression in LPS-induced THP-1 macrophages; test: In vitro THP-1 assay, IL6 ELISA; type: cell-based, human; conditions: 0.5 to 5 μM, 60 min pre-incubation, vs DMSO
Procedure: as §8

Row | SMILES | melting point [°C] | inhibition of TNFα expression in the supernatant [1] | inhibition of IL6 expression in the supernatant [2] | also measured
1 | CCCS(=O)(=O)Nc1cc(Nc2cc(-c3cccc([N+](=O)[O-])c3)ncn2)ccc1C | 202 to 203.5 | – | – | –
2 | CCOc1ccccc1-c1cc(Nc2cccc(CS(N)(=O)=O)c2)ncn1 [Compound 1, {3-[6-(2-Ethoxy-phenyl)-pyrimidin-4-ylamino]-phenyl}-methanesulfonamide] | 236.3 to 238.6 | significant inhibitory effect; also recorded: significant inhibition | significant inhibitory effect; also recorded: significant inhibition | TNFα protein concentration in the blood serum (TNFα): significant repressive effect; IL6 protein concentration in the blood serum (IL6): significant repressive effect
3 | COc1cc(F)ccc1-c1cc(Nc2cccc(CS(N)(=O)=O)c2)ncn1 [Compound 3, {3-[6-(4-Fluoro-2-methoxy-phenyl)-pyrimidin-4-ylamino]-phenyl}-methanesulfonamide] | – | significant inhibitory effect; also recorded: significant inhibition | significant inhibitory effect; also recorded: significant inhibition | –
4 | CC(C)Oc1ccccc1-c1cc(Nc2cccc(CS(N)(=O)=O)c2)ncn1 [Compound 5, {3-[6-(2-Isopropoxy-phenyl)-pyrimidin-4-ylamino]-phenyl}-methanesulfonamide] | – | – | significant inhibition | TNFα protein concentration in the blood serum (TNFα): significant repressive effect; IL6 protein concentration in the blood serum (IL6): significant repressive effect
5 | COc1ccccc1-c1cc(Nc2cccc(CS(=O)(=O)NC(C)C)c2)ncn1 [Compound 10, N-Isopropyl-C-{3-[6-(2-methoxy-phenyl)-pyrimidin-4-ylamino]-phenyl}-methanesulfonamide] | – | – | – | TNFα protein concentration in the blood serum (TNFα): significant repressive effect; IL6 protein concentration in the blood serum (IL6): significant repressive effect
6 | COc1ccccc1-c1cc(Nc2cccc(CS(=O)(=O)NC3CCCC3)c2)ncn1 [Compound 16, N-Cyclopentyl-C-{3-[6-(2-methoxy-phenyl)-pyrimidin-4-ylamino]-phenyl}-methanesulfonamide] | – | significant inhibitory effect; also recorded: significant inhibition | significant inhibitory effect; also recorded: significant inhibition | –
7 | CCOc1ccccc1-c1cc(Nc2cccc(CS(=O)(=O)NC3CC3)c2)ncn1 [Compound 18, N-Cyclopropyl-C-{3-[6-(2-ethoxy-phenyl)-pyrimidin-4-ylamino]-phenyl}-methanesulfonamide] | – | significant inhibitory effect; also recorded: significant inhibition | significant inhibitory effect; also recorded: significant inhibition | –
8 | CCOc1ccccc1-c1cc(Nc2cccc(CS(=O)(=O)NC(C)(C)C)c2)ncn1 [Compound 19, N-tert-Butyl-C-{3-[6-(2-ethoxy-phenyl)-pyrimidin-4-ylamino]-phenyl}-methanesulfonamide] | – | significant inhibitory effect; also recorded: significant inhibition | significant inhibitory effect; also recorded: significant inhibition | –
9 | NS(=O)(=O)Cc1cccc(Nc2cc(-c3ccccc3OCc3ccccc3)ncn2)c1 [Compound 32, {3-[6-(2-Benzyloxy-phenyl)-pyrimidin-4-ylamino]-phenyl}-methanesulfonamide] | – | significant inhibitory effect; also recorded: significant inhibition | significant inhibitory effect; also recorded: significant inhibition | –
10 | COCCCNS(=O)(=O)Cc1cccc(Nc2cc(-c3ccccc3OC)ncn2)c1 [Compound 33, C-{3-[6-(2-Methoxy-phenyl)-pyrimidin-4-ylamino]-phenyl}-N-(3-methoxy-propyl)-methanesulfonamide] | 149.2 to 150.8 | – | – | –
11 | COCCOc1ccccc1-c1cc(Nc2cccc(CS(C)(=O)=O)c2)ncn1 [Compound 57, (3-Methanesulfonylmethyl-phenyl)-{6-[2-(2-methoxy-ethoxy)-phenyl]-pyrimidin-4-yl}-amine] | 141 to 142.9 | – | – | –
12 | NS(=O)(=O)Cc1cccc(Nc2cc(-c3cccc(C(F)(F)F)c3)ncn2)c1 [Compound 63, {3-[6-(3-Trifluoromethyl-phenyl)-pyrimidin-4-ylamino]-phenyl}-methanesulfonamide] | 221.5 to 223 | – | – | –
13 | CS(=O)(=O)Cc1cccc(Nc2cc(-c3ccccc3OCC3CCCO3)ncn2)c1 (stereo not drawn) [Compound 64, (3-methanesulfonylmethyl-phenyl)-{6-[2-(tetrahydro-furan-2-ylmethoxy)-phenyl]-pyrimidin-4-yl}-amine] | 160 to 162.6 | – | – | –
14 | COc1ccccc1-c1cc(Nc2cccc(CS(N)(=O)=O)c2)nc(N)n1 [Compound 66, {3-[2-amino-6-(2-methoxy-phenyl)-pyrimidin-4-ylamino]-phenyl}-methanesulfonamide] | 211.7 to 213.1 | – | – | –
15 | CNS(=O)(=O)Cc1cccc(Nc2cc(-c3ccccc3COC)ncn2)c1 [Compound 80, C-{3-[6-(2-methoxymethyl-phenyl)-pyrimidin-4-ylamino]-phenyl}-N-methyl-methanesulfonamide] | 171 to 172 | – | – | –
16 | NS(=O)(=O)Cc1cccc(Nc2cc(-c3ccccc3OCC3CCCO3)ncn2)c1 (stereo not drawn) [Compound 82, (3-{6-[2-(tetrahydro-furan-2-ylmethoxy)-phenyl]-pyrimidin-4-ylamino}-phenyl)-methanesulfonamide] | 168.4 to 169.4 | – | – | –
17 | COCCOc1ccccc1-c1cc(Nc2cccc(CS(N)(=O)=O)c2)nc(C)n1 [Compound 83, (3-{6-[2-(2-methoxy-ethoxy)-phenyl]-2-methyl-pyrimidin-4-ylamino}-phenyl)-methanesulfonamide] | 209 to 211.1 | – | – | –
18 | COc1ccccc1-c1cc(Nc2cccc(CS(=O)(=O)CCCN(C)C)c2)ncn1 [Compound 84, [3-(3-Dimethylamino-propane-1-sulfonylmethyl)-phenyl]-[6-(2-methoxy-phenyl)-pyrimidin-4-yl]-amine] | – | – | – | TNFα protein concentration in the blood serum (TNFα): significant repressive effect; IL6 protein concentration in the blood serum (IL6): significant repressive effect
19 | CS(=O)(=O)c1cccc(Nc2cc(-c3ccccc3O)ncn2)c1 [Reference Example 49, 2-[6-(3-methanesulfonyl-phenylamino)-pyrimidin-4-yl]-phenol] | 214 to 216.1 | – | – | –
20 | CS(=O)(=O)c1cccc(Nc2cc(-c3ccccc3OCc3ccccc3)ncn2)c1 [Reference Example 51, [6-(2-benzyloxy-phenyl)-pyrimidin-4-yl]-(3-methanesulfonyl-phenyl)-amine] | 199 to 205 | – | – | –
